Paper PMC5597302 (Angewandte Chemie (International ed. in English), 2016)

Experiments:
[1] = test system: B16 melanoma cells expressing human uPAR; assay: B16-uPAR mouse allograft model; conditions: Dox 1 mpk
uPAR = uPAR (Homo sapiens, UniProt Q03405); conditions: read-out: affinity for uPAR; reported value; ref 8a; cited from earlier work
Chain of uPAR (Q03405 23-335): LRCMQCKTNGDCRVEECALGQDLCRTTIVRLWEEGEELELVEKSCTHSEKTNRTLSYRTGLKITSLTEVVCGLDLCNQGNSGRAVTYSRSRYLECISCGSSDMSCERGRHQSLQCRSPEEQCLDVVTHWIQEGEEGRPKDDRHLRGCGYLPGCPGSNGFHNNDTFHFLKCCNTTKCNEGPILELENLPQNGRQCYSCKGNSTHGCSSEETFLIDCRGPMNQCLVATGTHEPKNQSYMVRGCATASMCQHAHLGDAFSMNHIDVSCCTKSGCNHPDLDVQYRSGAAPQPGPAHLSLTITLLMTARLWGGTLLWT

SMILES	level of TGI relative to ARM-U2 ([1]; daily IP, combination ARM-U2 20 mpk and Dox 1 mpk)	body weight loss ([1]; throughout the experiments, ARM-U2 20 or 100 mpk)	Kd (uPAR) [nM]
COc1cccc2c1C(=O)c1c(O)c3c(c(O)c1C2=O)C[C@@](O)(C(=O)CO)C[C@@H]3O[C@H]1C[C@H](N)[C@H](O)[C@H](C)O1 [Dox, doxorubicin]	comparable	significant levels of weight loss	
O=C(O)c1cccc(Nc2cc(N3CCCCCC3)c3noc4c3c2C(=O)c2ccccc2-4)c1 [IPR-803]			200
